Experimental data taken from patent US20240383891A1, “BENZIMIDAZOLE AND RELATED ANALOGS FOR INHIBITING YAP/TAZ-TEAD” (SpringWorks Therapeutics, Inc., priority 2023, published 2024).

What was measured:
Type in all cases: cell-based
[1] = tested on: YAP/TAZ-TEAD transcription; experiment: reporter gene assay for measuring the inhibition of YAP/TAZ-TEAD transcription (TEAD-responsive element luciferase reporter in Hek293T cells); details: Homo sapiens, HEK-293T; Hek293T cells transiently transfected with TEAD-responsive element luciferase reporter, 24 hours incubation
Experimental: Example 21: Activity of compounds of the disclosure in a reporter gene assay for measuring the inhibition of YAP/TAZ-TEAD transcription Hek293T cells are cultured in DMEM supplemented with 10% fetal bovine serum, Sodium pyruvate, Sodium bicarbonate, L-glutamine. The cells are harvested and transiently transfected with TEAD-responsive element luciferase reporter. Transfected cells are plated in 384-well plate containing pre-diluted compounds. After 24 hours incubation at 37° C./5% CO2, assay plates were cooled to room temperature and levelled to an equal volume per well, prior to the addition of 25 uL luciferase substrate SteadyLite (Perkin Elmer)/well. The plate was shaken for 10 min at 600 rpm, centrifuged for 1 min at 500 rpm and measured with an Envision reader (PerkinElmer). The amount of relative light units produced by the TEAD reporter is used to calculate the percentage of inhibition. The percent of reporter inhibition was calculated in the presence of a positive control inhibitor (100% inhibition) versus a condition with the presence of the vehicle basal activity of the reporter (0% inhibition). The ability of a test compound to inhibit this activity was determined as: Percentage inhibition=[[…]((RLU determined in the presence of vehicle—RLU determined for sample with test compound present) divided by (RLU determined in the presence of vehicle—RLU determined for sample with positive control inhibitor))] *100.
The activities of example compounds tested are depicted in Table 3. The activity ranges A, B and C refer to IC50 values in the reporter gene assay as follows: “A”: IC50<1 μM; “B”: 1 μM≤IC50 10 μM and “C”: IC50>10 μM; NT=not tested.

NCI-H2052 = experiment: mesothelioma cell line proliferation assay, NCI-H2052; details: Homo sapiens, 144 h; NCI-H2052 mesothelioma cells, 6 days incubation, ATPlite cell viability
Experimental: (§1) Mesothelioma cell lines, NCI-H226 and NCI-H2052 (both sourced from the ATCC cell culture collection) are plated in 96-well plates (Corning® 96 Well White Polystyrene Microplate clear flat bottom, white polystyrene (TC-Treated)), at 1500 cells/well in full medium (RPMI 1640 ATCC modification with L-glutamine, HEPES, Phenol Red, Sodium Pyruvate, High glucose, Low sodium bicarbonate and 10% fetal bovine serum). Cells are incubated overnight at 37° C. in an incubator with 5% CO2. Then compounds, dissolved in DMSO, are added in dose-response. Cells are incubated with compound dilutions for another 6 days at 37° C. in an incubator with 5% CO2. Cell viability is quantitated using the ATPlite kit (Perkin-Elmer) and the luminescence is read-out using an Envision instrument (Perkin-Elmer). The amount of relative light units produced using the ATPlite kit is used to calculate percent of inhibition. The activities of some example compounds are depicted in Table 4. The activity ranges A, B and C refer to EC50 values in the mesothelioma cell line proliferation assay as described as follows: “A”: EC50<1 μM; “B”: 1 μM s […] and “C”: EC50>10 μM; NT: not tested.

NCI-H226 = experiment: mesothelioma cell line proliferation assay, NCI-H226; details: Homo sapiens, 144 h; NCI-H226 mesothelioma cells, 6 days incubation, ATPlite cell viability
Experimental: as §1

IC50 [1]	EC50 (NCI-H2052)	EC50 (NCI-H226)	SMILES
> 10 µM	–	–	O=C(O)C1CC(O)(c2nc(-c3ccc(C(F)(F)F)cc3)c3ccccn23)C1 (stereo not shown) [Cpd. No. 014, 3-hydroxy-3-(1-(4-(trifluoromethyl)phenyl)imidazo[1,5-a]pyridin-3-yl)cyclobutane-1-carboxylic acid]
> 10 µM	–	–	CC(=O)NCc1nc(-c2ccc(C(F)(F)F)cc2)n2cc(C(F)(F)F)ccc12 [Cpd. No. 010, N-((6-(trifluoromethyl)-3-(4-(trifluoromethyl)phenyl)imidazo[1,5-a]pyridin-1-yl)methyl)acetamide]
< 1 µM	–	–	O=C(O)CCc1nc(-c2ccc(C(F)(F)F)cc2)c2ccccn12 [Cpd. No. 023, 3-(1-(4-(trifluoromethyl)phenyl)imidazo[1,5-a]pyridin-3-yl)propanoic acid]
> 10 µM	–	–	O=C(O)C1CN(c2nc(-c3ccc(C(F)(F)F)cc3)c3ccccn23)C1 [Cpd. No. 017, 1-(1-(4-(trifluoromethyl)phenyl)imidazo[1,5-a]pyridin-3-yl)azetidine-3-carboxylic acid]
1 to 10 µM	–	–	CS(=O)(=O)NCc1nc(-c2ccc(C(F)(F)F)cc2)n2ccccc12 [Cpd. No. 006, N-((3-(4-(trifluoromethyl)phenyl)imidazo[1,5-a]pyridin-1-yl)methyl)methanesulfonamide]
1 to 10 µM	–	–	CN(CC(=O)O)c1nc(-c2ccc(C(F)(F)F)cc2)c2ccccn12 [Cpd. No. 024, N-methyl-N-(1-(4-(trifluoromethyl)phenyl)imidazo[1,5-a]pyridin-3-yl)glycine]
> 10 µM	–	–	CCC(=O)NCc1nc(-c2ccc(C(F)(F)F)cc2)n2ccccc12 [Cpd. No. 005, N-((3-(4-(trifluoromethyl)phenyl)imidazo[1,5-a]pyridin-1-yl)methyl)propionamide]
> 10 µM	–	–	O=C(O)CNc1nc(-c2ccc(C(F)(F)F)cc2)c2ccccn12 [Cpd. No. 021, (1-(4-(trifluoromethyl)phenyl)imidazo[1,5-a]pyridin-3-yl)glycine]
< 1 µM	< 1 µM	< 1 µM	C=CC(=O)NCc1nc(-c2ccc(C(F)(F)F)cc2)c2ccccn12 [Cpd. No. 002, N-((1-(4-(trifluoromethyl)phenyl)imidazo[1,5-a]pyridin-3-yl)methyl)acrylamide]
> 10 µM	–	–	O=C(O)[C@H]1C[C@@H](c2nc(-c3ccc(C(F)(F)F)cc3)c3ccccn32)C1 [Cpd. No. 019, cis-3-(1-(4-(trifluoromethyl)phenyl)imidazo[1,5-a]pyridin-3-yl)cyclobutane-1-carboxylic acid]
1 to 10 µM	–	–	O=c1[nH]nc(-c2nc(-c3ccc(C(F)(F)F)cc3)c3ccccn23)[nH]1 [Cpd. No. 029, 5-(1-(4-(trifluoromethyl)phenyl)imidazo[1,5-a]pyridin-3-yl)-2,4-dihydro-3H-1,2,4-triazol-3-one]
< 1 µM	< 1 µM	< 1 µM	C=CC(=O)NCc1nc(-c2ccc(C(F)(F)F)cc2)n2ccccc12 [Cpd. No. 001, N-((3-(4-(trifluoromethyl)phenyl)imidazo[1,5-a]pyridin-1-yl)methyl)acrylamide]
> 10 µM	–	–	CS(=O)(=O)NCc1nc(-c2ccc(C(F)(F)F)cc2)n2cc(C(F)(F)F)ccc12 [Cpd. No. 011, N-((6-(trifluoromethyl)-3-(4-(trifluoromethyl)phenyl)imidazo[1,5-a]pyridin-1-yl)methyl)methanesulfonamide]
> 10 µM	–	–	CS(=O)(=O)NCc1nc(-c2ccc(C(F)(F)F)cc2)c2ccccn12 [Cpd. No. 004, N-((1-(4-(trifluoromethyl)phenyl)imidazo[1,5-a]pyridin-3-yl)methyl)methanesulfonamide]
> 10 µM	–	–	CCC(=O)NCc1nc(-c2ccc(C(F)(F)F)cc2)c2ccccn12 [Cpd. No. 003, N-((1-(4-(trifluoromethyl)phenyl)imidazo[1,5-a]pyridin-3-yl)methyl)propionamide]
< 1 µM	–	–	O=C(O)[C@@H]1C[C@H]1c1nc(-c2ccc(C(F)(F)F)cc2)c2ccccn12 (relative stereo) [Cpd. No. 012, trans-2-(1-(4-(trifluoromethyl)phenyl)imidazo[1,5-a]pyridin-3-yl)cyclopropane-1-carboxylic acid]
< 1 µM	< 1 µM	< 1 µM	C=CC(=O)NCc1nc(-c2ccc(C(F)(F)F)cc2)n2cc(C(F)(F)F)ccc12 [Cpd. No. 009, N-((6-(trifluoromethyl)-3-(4-(trifluoromethyl)phenyl)imidazo[1,5-a]pyridin-1-yl)methyl)acrylamide]
< 1 µM	< 1 µM	< 1 µM	O=c1[nH]nc(-c2nc(-c3ccc(C(F)(F)F)cc3)c3ccccn23)o1 [Cpd. No. 025, 5-(1-(4-(trifluoromethyl)phenyl)imidazo[1,5-a]pyridin-3-yl)-1,3,4-oxadiazol-2(3H)-one]
< 1 µM	–	–	O=Cc1ccc(-c2nc(-c3ccc(C(F)(F)F)cc3)c3ccccn23)cc1O [Cpd. No. 013, 2-hydroxy-4-(1-(4-(trifluoromethyl)phenyl)imidazo[1,5-a]pyridin-3-yl)benzaldehyde]
< 1 µM	–	–	O=c1[nH]c(-c2nc(-c3ccc(C(F)(F)F)cc3)c3ccccn23)no1 [Cpd. No. 028, 3-(1-(4-(trifluoromethyl)phenyl)imidazo[1,5-a]pyridin-3-yl)-1,2,4-oxadiazol-5(4H)-one]
< 1 µM	< 1 µM	< 1 µM	CNS(=O)(=O)/C=C/c1nc(-c2ccc(C(F)(F)F)cc2)c2ccccn12 [Cpd. No. 027, (E)-N-methyl-2-(1-(4-(trifluoromethyl)phenyl)imidazo[1,5-a]pyridin-3-yl)ethene-1-sulfonamide]
< 1 µM	< 1 µM	< 1 µM	O=C(O)/C=C/c1nc(-c2ccc(C(F)(F)F)cc2)c2ccccn12 [Cpd. No. 008, (E)-3-(1-(4-(trifluoromethyl)phenyl)imidazo[1,5-a]pyridin-3-yl)acrylic acid]
> 10 µM	–	–	O=C(O)[C@H]1C[C@H]1c1nc(-c2ccc(C(F)(F)F)cc2)c2ccccn12 (racemic) [Cpd. No. 018, cis-2-(1-(4-(trifluoromethyl)phenyl)imidazo[1,5-a]pyridin-3-yl)cyclopropane-1-carboxylic acid]
< 1 µM	< 1 µM	< 1 µM	O=C(O)/C=C/c1nc(-c2ccc(C(F)(F)F)cc2)c2ccc(C(F)(F)F)cn12 [Cpd. No. 022, (E)-3-(6-(trifluoromethyl)-1-(4-(trifluoromethyl)phenyl)imidazo[1,5-a]pyridin-3-yl)acrylic acid]
1 to 10 µM	–	–	O=C1CC(c2nc(-c3ccc(C(F)(F)F)cc3)c3ccccn23)=NO1 [Cpd. No. 030, 3-(1-(4-(trifluoromethyl)phenyl)imidazo[1,5-a]pyridin-3-yl)isoxazol-5(4H)-one]
> 10 µM	–	–	O=C(O)C1CCN1c1nc(-c2ccc(C(F)(F)F)cc2)c2ccccn12 (stereo not shown) [Cpd. No. 016, 1-(1-(4-(trifluoromethyl)phenyl)imidazo[1,5-a]pyridin-3-yl)azetidine-2-carboxylic acid]
< 1 µM	< 1 µM	< 1 µM	C=CC(=O)NCc1nc(C2CCC(F)(F)CC2)c2ccccn12 [Cpd. No. 026, N-((1-(4,4-difluorocyclohexyl)imidazo[1,5-a]pyridin-3-yl)methyl)acrylamide]
< 1 µM	–	–	O=C(O)[C@H]1C[C@H](c2nc(-c3ccc(C(F)(F)F)cc3)c3ccccn32)C1 [Cpd. No. 020, trans-3-(1-(4-(trifluoromethyl)phenyl)imidazo[1,5-a]pyridin-3-yl)cyclobutane-1-carboxylic acid]
< 1 µM	–	–	O=C(O)/C=C/c1nc(-c2ccc(C(F)(F)F)cc2)n2ccccc12 [Cpd. No. 007, (E)-3-(3-(4-(trifluoromethyl)phenyl)imidazo[1,5-a]pyridin-1-yl)acrylic acid]
> 10 µM	–	–	O=C(O)Cc1nc(-c2ccc(C(F)(F)F)cc2)c2ccccn12 [Cpd. No. 015, 2-(1-(4-(trifluoromethyl)phenyl)imidazo[1,5-a]pyridin-3-yl)acetic acid]
